Calls of active or inactive are those of the source. The rule behind the calls is not given here.
Key:
[1] = Volume of distribution at steady state in male ICR mouse at 5 mg/kg, iv measured upto 24 hrs by LC-MS/MS analysis; assay type: ADME, organism-based; conditions: in vivo, read-out: Vdss
HPAF-II = assay: Synergistic antiproliferative activity against human HPAF-II cells assessed as combination index upto 20 uM incubated for 72 hrs in presence of MRTX1133; assay type: functional
[2] = AUC (0 to t) in male ICR mouse at 5 mg/kg, iv measured upto 24 hrs by LC-MS/MS analysis; assay type: ADME, organism-based; conditions: in vivo
PANC-1 [3] = assay: Effect on GSPT1 level in human PANC-1 cells at 0.008 to 10 uM measured after 8 hrs by western blot analysis; assay type: functional, cell-based; conditions: dose 0.008-10 µM
PANC-1 [4] = assay: Upregulation of gammaH2AX expression in human PANC-1 cells at 0.1 to 10 uM measured after 24 hrs by Western blot analysis; assay type: functional, cell-based; conditions: dose 0.1-10 µM
[5] = AUC (0 to t) in male ICR mouse at 20 mg/kg, ip measured upto 24 hrs by LC-MS/MS analysis; assay type: ADME, organism-based; conditions: in vivo
KP-4 = assay: Synergistic antiproliferative activity against human KP-4 cells at 0 to 10 uM incubated for 72 hrs in presence of MRTX1133 by SRB assay; assay type: functional, cell-based; conditions: dose 0-10 µM
[6] = Half life in male ICR mouse at 5 mg/kg, iv measured upto 24 hrs by LC-MS/MS analysis; assay type: ADME, organism-based; conditions: in vivo
[7] = molecular target: T1, Protein cereblon/Histone-lysine N-methyltransferase EHMT2 (Homo sapiens, UniProt Q96KQ7+Q96SW2); assay: PROTAC activity at CRBN/G9a in human ASPC1 cells assessed as induction of G9a degradation measured after 8 hrs by Western blot analysis; assay type: cell-based
Target sequence in this assay (Q96KQ7 whole entry): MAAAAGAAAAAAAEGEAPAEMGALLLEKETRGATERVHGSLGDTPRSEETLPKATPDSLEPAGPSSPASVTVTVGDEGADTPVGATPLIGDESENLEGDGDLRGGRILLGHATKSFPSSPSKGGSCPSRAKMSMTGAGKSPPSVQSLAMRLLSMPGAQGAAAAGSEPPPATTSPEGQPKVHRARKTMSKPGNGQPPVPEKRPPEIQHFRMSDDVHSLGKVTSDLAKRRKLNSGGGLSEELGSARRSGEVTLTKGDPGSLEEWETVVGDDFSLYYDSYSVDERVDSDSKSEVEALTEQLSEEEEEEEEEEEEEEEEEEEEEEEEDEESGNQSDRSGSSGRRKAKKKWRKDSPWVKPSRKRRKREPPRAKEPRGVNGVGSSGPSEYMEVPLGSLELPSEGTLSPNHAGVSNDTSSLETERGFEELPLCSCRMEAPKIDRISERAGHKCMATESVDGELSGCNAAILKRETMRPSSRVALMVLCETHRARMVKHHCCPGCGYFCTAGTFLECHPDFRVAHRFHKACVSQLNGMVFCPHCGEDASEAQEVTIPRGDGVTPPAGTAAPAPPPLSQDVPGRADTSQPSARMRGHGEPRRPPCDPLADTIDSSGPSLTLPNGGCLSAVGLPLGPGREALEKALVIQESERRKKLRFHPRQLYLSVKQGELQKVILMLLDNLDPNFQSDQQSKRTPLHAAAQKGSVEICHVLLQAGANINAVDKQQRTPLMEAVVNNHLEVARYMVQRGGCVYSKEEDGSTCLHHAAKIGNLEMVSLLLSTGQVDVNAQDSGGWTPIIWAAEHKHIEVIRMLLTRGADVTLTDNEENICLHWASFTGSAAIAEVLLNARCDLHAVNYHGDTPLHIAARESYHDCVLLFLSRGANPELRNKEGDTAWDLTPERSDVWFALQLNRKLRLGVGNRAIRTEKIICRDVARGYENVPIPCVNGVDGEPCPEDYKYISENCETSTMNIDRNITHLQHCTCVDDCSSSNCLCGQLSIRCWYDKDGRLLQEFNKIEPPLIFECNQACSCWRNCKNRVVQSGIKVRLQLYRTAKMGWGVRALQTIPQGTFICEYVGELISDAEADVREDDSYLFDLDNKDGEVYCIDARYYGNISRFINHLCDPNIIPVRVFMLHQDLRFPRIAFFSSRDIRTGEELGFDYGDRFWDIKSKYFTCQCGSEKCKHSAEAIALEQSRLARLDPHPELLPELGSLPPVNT
Target sequence in this assay (Q96SW2 whole entry): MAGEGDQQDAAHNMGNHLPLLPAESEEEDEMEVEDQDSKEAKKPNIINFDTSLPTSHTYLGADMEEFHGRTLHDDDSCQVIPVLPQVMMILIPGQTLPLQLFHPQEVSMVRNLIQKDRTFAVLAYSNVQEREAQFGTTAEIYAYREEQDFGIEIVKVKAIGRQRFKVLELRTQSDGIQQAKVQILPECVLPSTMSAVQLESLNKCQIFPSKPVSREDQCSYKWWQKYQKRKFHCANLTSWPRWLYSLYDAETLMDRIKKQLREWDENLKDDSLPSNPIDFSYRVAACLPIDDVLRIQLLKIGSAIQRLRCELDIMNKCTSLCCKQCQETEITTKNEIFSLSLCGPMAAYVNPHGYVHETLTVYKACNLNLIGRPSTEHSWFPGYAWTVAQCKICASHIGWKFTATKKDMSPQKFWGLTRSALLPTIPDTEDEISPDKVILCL

[8] = molecular target: T1, Protein cereblon/Histone-lysine N-methyltransferase EHMT2; assay: PROTAC activity at CRBN/G9a in human PANC-1 cells assessed as induction of G9a degradation at 0.1 uM measured after 24 hrs by Western blot analysis; assay type: cell-based
Target sequence in this assay (Q96KQ7 2-1210 limits assumed): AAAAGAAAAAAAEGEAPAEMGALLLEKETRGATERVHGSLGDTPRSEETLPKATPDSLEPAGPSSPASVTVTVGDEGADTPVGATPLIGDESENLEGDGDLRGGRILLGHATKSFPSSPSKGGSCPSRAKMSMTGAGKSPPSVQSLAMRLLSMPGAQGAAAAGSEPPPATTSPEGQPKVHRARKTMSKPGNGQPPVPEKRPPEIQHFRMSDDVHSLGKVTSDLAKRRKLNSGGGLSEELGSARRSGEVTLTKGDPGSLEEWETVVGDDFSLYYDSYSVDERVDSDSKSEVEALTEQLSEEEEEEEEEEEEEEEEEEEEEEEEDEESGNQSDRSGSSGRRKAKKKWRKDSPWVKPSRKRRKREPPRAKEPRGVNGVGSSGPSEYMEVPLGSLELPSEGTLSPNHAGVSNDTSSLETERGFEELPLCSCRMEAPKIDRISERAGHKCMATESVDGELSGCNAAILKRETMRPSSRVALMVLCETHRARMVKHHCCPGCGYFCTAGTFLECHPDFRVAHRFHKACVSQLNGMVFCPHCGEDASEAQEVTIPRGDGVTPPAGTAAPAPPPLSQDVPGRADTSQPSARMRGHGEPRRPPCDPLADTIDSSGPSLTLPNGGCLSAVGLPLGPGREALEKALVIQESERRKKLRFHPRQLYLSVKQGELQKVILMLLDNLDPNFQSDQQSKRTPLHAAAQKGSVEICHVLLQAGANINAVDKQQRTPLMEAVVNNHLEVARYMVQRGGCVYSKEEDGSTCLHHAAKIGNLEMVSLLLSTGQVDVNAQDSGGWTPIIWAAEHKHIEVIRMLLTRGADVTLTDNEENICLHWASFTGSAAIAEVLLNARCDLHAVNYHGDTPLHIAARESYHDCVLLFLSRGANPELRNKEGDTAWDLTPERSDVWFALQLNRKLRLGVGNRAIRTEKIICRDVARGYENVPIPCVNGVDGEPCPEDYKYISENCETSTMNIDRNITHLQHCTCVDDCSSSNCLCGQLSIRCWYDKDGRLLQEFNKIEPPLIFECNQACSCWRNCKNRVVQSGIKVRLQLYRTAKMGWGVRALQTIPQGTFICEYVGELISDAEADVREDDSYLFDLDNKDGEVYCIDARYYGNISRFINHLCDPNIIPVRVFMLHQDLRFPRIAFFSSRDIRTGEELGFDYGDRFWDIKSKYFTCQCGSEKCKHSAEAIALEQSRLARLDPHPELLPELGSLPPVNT
Target sequence in this assay (Q96SW2 whole entry partner): as the sequence (Q96SW2 whole entry) above

SW1990 = assay: Antiproliferative activity against human SW1990 cells assessed as inhibition of cell growth measured after 72 hrs by SRB assay; assay type: functional, cell-based
PANC-1 [9] = assay: Antiproliferative activity against human PANC-1 cells assessed as inhibition of cell growth measured after 72 hrs by SRB assay; assay type: functional, cell-based
PANC-1 [10] = assay: Effect on G9a mRNA expression at transcriptional level in human PANC-1 cells at 0.1 to 10 uM by RT-qPCR analysis; assay type: functional, cell-based; conditions: dose 0.1-10 µM
PANC-1 [11] = assay: Effect on H3K27me3 level in human PANC-1 cells at 0.04 to 10 uM measured after 24 hrs by Western blot analysis; assay type: functional, cell-based; conditions: dose 0.04-10 µM
CWR22R = assay: Antiproliferative activity against human 22Rv1 cells assessed as inhibition of cell growth measured after 7 days by SRB assay; assay type: functional, cell-based; conditions: 22Rv1, 168 h
[12] = molecular target: T1, Protein cereblon/Histone-lysine N-methyltransferase EHMT2; assay: PROTAC activity at CRBN/G9a in human PANC-1 cells assessed as induction of G9a degradation measured after 8 hrs by Western blot analysis; assay type: cell-based

Vd [1]: 2.61 L/kg | AUC(0-t) at 24 h [2]: 3780 ng·h/mL | AUC(0-t) at 24 h [5]: 6150 ng·h/mL | half-life [6]: 5.3 h | DC50 [7]: 200 nM | Activity [8]: Active | Activity [12]: Dose-Dependent Effect | DC50 [12]: 100 nM
SMILES: COc1cc2c(NC3CCN(CCCC(=O)NCCCCCCCCNc4cccc5c4C(=O)N(C4CCC(=O)NC4=O)C5=O)CC3)nc(C3CCCCC3)nc2cc1OCCCN1CCCC1 (configuration not stated)
CI (HPAF-II): <0.8 | Activity (PANC-1 [3]): inactive | Activity (PANC-1 [4]): Active | Activity (KP-4): Active | Activity (SW1990): Active | Activity (PANC-1 [9]): Active | Activity (PANC-1 [10]): inactive | Activity (PANC-1 [11]): inactive | IC50 (CWR22R): 9900 nM

Reference: ChEMBL document CHEMBL5523762, “Discovery of Potent and Selective G9a Degraders for the Treatment of Pancreatic Cancer” (J Med Chem, 2024)
